#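 These data come from cells grown in 96-well plates and exposed to compound for 48 hours at five concentrations. Here, GI50 denotes the concentration required for 50% inhibition of growth.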 Active and inactive are the calls of the source. No stated cut-off is given here; in the data, active = GI50 up to about 1.1 µM and inactive = higher.
# Tests used:
# Experiment in all cases: inhibition of tumour cell growth, NCI panel, 48 h
# EKVX = tested on: EKVX
# SNB-75 = tested on: SNB-75
# TK-10 = tested on: TK-10
# HT-29 = tested on: HT-29
# MDA-MB-231 = tested on: MDA-MB-231
# PC-3 = tested on: PC-3
# SW-620 = tested on: SW-620
# NCI-H226 = tested on: NCI-H226
# RPMI-8226 = tested on: RPMI-8226
# MCF7 = tested on: MCF7
# IGROV-1 = tested on: IGROV-1
# SR = tested on: SR
# CCRF-CEM = tested on: CCRF-CEM
# KM12 = tested on: KM12
# LOX IMVI = tested on: LOX IMVI
# UACC-257 = tested on: UACC-257
# HCT-116 = tested on: HCT-116
# NCI-H460 = tested on: NCI-H460
# HCC 2998 = tested on: HCC 2998
# SNB-19 = tested on: SNB-19
# MDA-MB-435 = tested on: MDA-MB-435
# SK-MEL-28 = tested on: SK-MEL-28
# HOP-92 = tested on: HOP-92
# SF-539 = tested on: SF-539
# NCI/ADR-RES = tested on: NCI/ADR-RES
# SF-295 = tested on: SF-295
# Hs-578T = tested on: Hs-578T
# SK-MEL-2 = tested on: SK-MEL-2
# SN12C = tested on: SN12C
# HL-60 = tested on: HL-60
# SK-OV-3 = tested on: SK-OV-3
# HCT-15 = tested on: HCT-15
# OVCAR-4 = tested on: OVCAR-4
# BT-549 = tested on: BT-549
# SK-MEL-5 = tested on: SK-MEL-5
# OVCAR-5 = tested on: OVCAR-5
# MDA-N = tested on: MDA-N
# UACC-62 = tested on: UACC-62
# NCI-H23 = tested on: NCI-H23
# Malme-3M = tested on: Malme-3M
# RXF 393 = tested on: RXF 393
# U-251 = tested on: U-251
# DU-145 = tested on: DU-145
# M14 = tested on: M14
# SF-268 = tested on: SF-268
# K562 = tested on: K562
# T47D = tested on: T47D
# ACHN = tested on: ACHN
# UO-31 = tested on: UO-31
# OVCAR-8 = tested on: OVCAR-8
# NCI-H522 = tested on: NCI-H522
# MOLT-4 = tested on: MOLT-4
# A498 = tested on: A498
# A549 = tested on: A549
# OVCAR-3 = tested on: OVCAR-3
# COLO 205 = tested on: COLO 205
# HOP-62 = tested on: HOP-62
# 786-0 = tested on: 786-0
# CAKI-1 = tested on: CAKI-1
# DMS-273 = tested on: DMS-273
# DLD-1 = tested on: DLD-1
# LXFL 529 = tested on: LXFL 529
# DMS-114 = tested on: DMS-114
# KM-20L2 = tested on: KM-20L2
# M19-MEL = tested on: M19-MEL
# SNB-78 = tested on: SNB-78
smiles,measurement,setting,value
COC(=O)C1Cc2c(C)cccc2C1=O (centres undefined),GI50,EKVX,> 100 µM (inactive)
same,GI50,SNB-75,> 100 µM (inactive)
same,GI50,TK-10,> 100 µM (inactive)
same,GI50,HT-29,> 100 µM (inactive)
same,GI50,MDA-MB-231,> 100 µM (inactive)
same,GI50,PC-3,> 100 µM (inactive)
same,GI50,SW-620,> 100 µM (inactive)
same,GI50,NCI-H226,> 100 µM (inactive)
same,GI50,RPMI-8226,> 100 µM (inactive)
same,GI50,MCF7,> 100 µM (inactive)
same,GI50,IGROV-1,> 100 µM (inactive)
same,GI50,SR,50.8 µM (inactive)
same,GI50,CCRF-CEM,41.3 µM (inactive)
same,GI50,KM12,> 100 µM (inactive)
same,GI50,LOX IMVI,88.9 µM (inactive)
same,GI50,UACC-257,> 100 µM (inactive)
same,GI50,HCT-116,> 100 µM (inactive)
same,GI50,NCI-H460,> 100 µM (inactive)
same,GI50,HCC 2998,> 100 µM (inactive)
same,GI50,SNB-19,> 100 µM (inactive)
same,GI50,MDA-MB-435,> 100 µM (inactive)
same,GI50,SK-MEL-28,> 100 µM (inactive)
same,GI50,HOP-92,> 100 µM (inactive)
same,GI50,SF-539,> 100 µM (inactive)
same,GI50,NCI/ADR-RES,> 100 µM (inactive)
same,GI50,SF-295,> 100 µM (inactive)
same,GI50,Hs-578T,> 100 µM (inactive)
same,GI50,SK-MEL-2,> 100 µM (inactive)
same,GI50,SN12C,> 100 µM (inactive)
same,GI50,HL-60,29.4 µM (inactive)
same,GI50,SK-OV-3,> 100 µM (inactive)
same,GI50,HCT-15,> 100 µM
same,GI50,OVCAR-4,> 100 µM (inactive)
same,GI50,BT-549,> 100 µM (inactive)
same,GI50,SK-MEL-5,> 100 µM (inactive)
same,GI50,OVCAR-5,> 100 µM (inactive)
same,GI50,MDA-N,> 100 µM (inactive)
same,GI50,UACC-62,> 100 µM (inactive)
same,GI50,NCI-H23,> 100 µM (inactive)
same,GI50,Malme-3M,> 100 µM (inactive)
same,GI50,RXF 393,> 100 µM (inactive)
same,GI50,U-251,> 100 µM (inactive)
same,GI50,DU-145,> 100 µM (inactive)
same,GI50,M14,> 100 µM (inactive)
same,GI50,SF-268,> 100 µM (inactive)
same,GI50,K562,66.7 µM (inactive)
same,GI50,T47D,> 100 µM (inactive)
same,GI50,ACHN,> 100 µM (inactive)
same,GI50,UO-31,> 100 µM (inactive)
same,GI50,OVCAR-8,> 100 µM (inactive)
same,GI50,NCI-H522,> 100 µM (inactive)
same,GI50,MOLT-4,> 100 µM (inactive)
same,GI50,A498,> 100 µM (inactive)
same,GI50,A549,> 100 µM (inactive)
same,GI50,OVCAR-3,> 100 µM (inactive)
same,GI50,COLO 205,> 100 µM (inactive)
same,GI50,HOP-62,> 100 µM (inactive)
same,GI50,786-0,> 100 µM (inactive)
same,GI50,CAKI-1,> 100 µM (inactive)
CCO[C@]12C[C@H](OC)[C@@]3(O)CC(C1[C@H]3O)C13C4C2[C@H](OC)C1[C@](COC)(CN4CC)[C@H](O)C[C@@H]3OC (some centres undefined),GI50,EKVX,> 100 µM (inactive)
same,GI50,SNB-75,> 10 µM (inactive)
same,GI50,TK-10,> 100 µM (inactive)
same,GI50,HT-29,> 100 µM (inactive)
same,GI50,DMS-273,> 100 µM (inactive)
same,GI50,SW-620,> 100 µM (inactive)
same,GI50,NCI-H226,> 100 µM (inactive)
same,GI50,DLD-1,> 100 µM (inactive)
same,GI50,RPMI-8226,> 100 µM (inactive)
same,GI50,LXFL 529,> 100 µM (inactive)
same,GI50,IGROV-1,> 100 µM (inactive)
same,GI50,SR,> 100 µM (inactive)
same,GI50,CCRF-CEM,> 100 µM (inactive)
same,GI50,LOX IMVI,> 100 µM (inactive)
same,GI50,UACC-257,> 100 µM (inactive)
same,GI50,HCT-116,> 100 µM (inactive)
same,GI50,NCI-H460,> 100 µM (inactive)
same,GI50,HCC 2998,> 100 µM (inactive)
same,GI50,SNB-19,> 100 µM (inactive)
same,GI50,DMS-114,> 100 µM (inactive)
same,GI50,SK-MEL-28,> 100 µM (inactive)
same,GI50,SF-539,> 100 µM (inactive)
same,GI50,KM-20L2,> 100 µM (inactive)
same,GI50,M19-MEL,> 100 µM (inactive)
same,GI50,SN12C,> 100 µM (inactive)
same,GI50,HL-60,> 100 µM (inactive)
same,GI50,SK-OV-3,> 100 µM (inactive)
same,GI50,HCT-15,> 100 µM
same,GI50,OVCAR-4,> 100 µM (inactive)
same,GI50,SK-MEL-5,> 100 µM (inactive)
same,GI50,OVCAR-5,> 100 µM (inactive)
same,GI50,UACC-62,> 100 µM (inactive)
same,GI50,NCI-H23,> 100 µM (inactive)
same,GI50,RXF 393,> 100 µM (inactive)
same,GI50,M14,> 100 µM (inactive)
same,GI50,SF-268,> 100 µM (inactive)
same,GI50,K562,> 100 µM (inactive)
same,GI50,ACHN,66.2 µM (inactive)
same,GI50,SNB-78,> 100 µM (inactive)
same,GI50,UO-31,> 100 µM (inactive)
same,GI50,OVCAR-8,> 100 µM (inactive)
same,GI50,MOLT-4,> 100 µM (inactive)
same,GI50,A549,> 100 µM (inactive)
same,GI50,COLO 205,> 100 µM (inactive)
same,GI50,HOP-62,> 100 µM (inactive)

# Reference: ChEMBL document CHEMBL1201862, “PubChem BioAssay data set” (2004)
